Laboratory results: PMC2099433, “The binding site for neohesperidin dihydrochalcone at the human sweet taste receptor” (BMC Structural Biology, 2007)
Where a chain is given by its changes, count along the chain named. Where a SMILES comes first, the peptide text is derived from it.

Experiments:
[1] = molecular target: T1, hTAS1R2 + hTAS1R3 Y699L^4.60 (Homo sapiens, UniProt Q7RTX0+Q8TE23, Y699L); assay: Calcium response (FLIPR), hTAS1R3 mutant coexpressed with hTAS1R2; type: cell-based; conditions: variant Y699L^4.60; for Emax: read-out: maximal signal (% of wt)
T1 construct: expressed in transfected cells; host or cells: HEK293T cells stably expressing G16Gust44
T1 sequence (Q7RTX0 21-852 Y699L): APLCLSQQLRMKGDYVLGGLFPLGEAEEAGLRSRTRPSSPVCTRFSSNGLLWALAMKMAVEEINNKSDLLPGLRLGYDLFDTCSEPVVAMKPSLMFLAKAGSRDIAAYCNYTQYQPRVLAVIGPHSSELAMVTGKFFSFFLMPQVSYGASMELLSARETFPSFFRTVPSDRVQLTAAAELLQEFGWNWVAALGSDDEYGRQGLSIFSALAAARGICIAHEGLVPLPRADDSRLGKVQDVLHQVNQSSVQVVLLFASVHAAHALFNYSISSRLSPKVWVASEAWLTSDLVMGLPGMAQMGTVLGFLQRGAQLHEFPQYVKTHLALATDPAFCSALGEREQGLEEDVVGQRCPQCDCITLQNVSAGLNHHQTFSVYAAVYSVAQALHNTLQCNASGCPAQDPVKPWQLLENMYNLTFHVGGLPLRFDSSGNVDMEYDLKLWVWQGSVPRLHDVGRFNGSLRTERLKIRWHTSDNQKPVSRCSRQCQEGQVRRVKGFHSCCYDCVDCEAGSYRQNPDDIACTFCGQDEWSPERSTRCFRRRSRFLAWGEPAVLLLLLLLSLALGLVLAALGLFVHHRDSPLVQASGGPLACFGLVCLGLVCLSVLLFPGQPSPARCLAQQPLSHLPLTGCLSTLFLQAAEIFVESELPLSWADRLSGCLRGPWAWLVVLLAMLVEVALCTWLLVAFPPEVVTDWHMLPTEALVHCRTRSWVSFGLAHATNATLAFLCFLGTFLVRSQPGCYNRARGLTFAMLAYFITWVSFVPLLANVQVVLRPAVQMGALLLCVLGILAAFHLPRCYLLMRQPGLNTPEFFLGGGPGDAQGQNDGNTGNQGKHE
T1 sequence (Q8TE23 20-839): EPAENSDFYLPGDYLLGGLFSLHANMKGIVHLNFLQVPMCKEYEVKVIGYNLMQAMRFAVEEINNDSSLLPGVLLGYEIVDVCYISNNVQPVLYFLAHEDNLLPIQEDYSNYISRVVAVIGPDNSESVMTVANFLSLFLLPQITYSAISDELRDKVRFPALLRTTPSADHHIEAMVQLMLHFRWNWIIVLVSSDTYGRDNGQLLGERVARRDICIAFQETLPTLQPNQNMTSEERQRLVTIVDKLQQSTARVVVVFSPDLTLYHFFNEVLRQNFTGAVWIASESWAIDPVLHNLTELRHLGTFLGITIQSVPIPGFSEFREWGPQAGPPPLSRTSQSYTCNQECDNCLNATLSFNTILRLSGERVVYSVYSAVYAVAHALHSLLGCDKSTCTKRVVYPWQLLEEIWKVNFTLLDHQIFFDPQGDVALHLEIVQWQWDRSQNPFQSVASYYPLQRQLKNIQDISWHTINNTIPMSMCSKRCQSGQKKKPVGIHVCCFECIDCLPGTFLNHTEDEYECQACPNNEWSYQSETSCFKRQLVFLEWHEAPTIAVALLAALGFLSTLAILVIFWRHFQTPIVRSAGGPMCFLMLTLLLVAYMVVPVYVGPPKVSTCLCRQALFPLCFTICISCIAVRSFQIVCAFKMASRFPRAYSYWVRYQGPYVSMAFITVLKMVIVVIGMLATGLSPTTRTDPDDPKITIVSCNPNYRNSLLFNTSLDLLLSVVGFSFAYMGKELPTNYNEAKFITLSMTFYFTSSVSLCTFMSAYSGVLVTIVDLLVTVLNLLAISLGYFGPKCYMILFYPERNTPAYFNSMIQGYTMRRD
Outline: (§1)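 HEK293T cells stably expressing chimeric G16Gust44 were transiently transfected with C-terminally HSV-tagged hTAS1R2 and mutant hTAS1R3, then loaded 24 h later with Fluo4-AM for 1 h. Calcium mobilization after sweet-tastant application was read by FLIPR, mock-corrected and expressed as ΔF/F.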

[2] = molecular target: T2, hTAS1R2 + hTAS1R3 Q636A^3.28 (Homo sapiens, UniProt Q7RTX0+Q8TE23, Q636A); assay: as above; type: cell-based; conditions: variant Q636A^3.28; for Emax: read-out: maximal signal (% of wt)
T2 construct: expressed in transfected cells; host or cells: HEK293T cells stably expressing G16Gust44
T2 sequence (Q8TE23 20-839): T1 sequence (Q8TE23 20-839)
T2 sequence (Q7RTX0 21-852 Q636A): T1 sequence (Q7RTX0 21-852 Y699L) with Q616A, L679Y
Outline: as §1

EC50 [1] [µM]	Emax [1] [%]	EC50 [2] [µM]	Emax [2] [%]	Structure (SMILES)
1600 ± 400	78 ± 9	1100 ± 100	70 ± 18	COC(=O)[C@H](Cc1ccccc1)NC(=O)[C@@H](N)CC(=O)O [aspartame] (HELM PEPTIDE1{D.F.[CO[*:1]]}$$$$V2.0)
700 ± 100	83 ± 40	300 ± 200	61 ± 29	COc1ccc(CCC(=O)c2c(O)cc(O[C@@H]3O[C@H](CO)[C@@H](O)[C@H](O)[C@H]3O[C@@H]3O[C@@H](C)[C@H](O)[C@@H](O)[C@H]3O)cc2O)cc1O [NHDC, neohesperidin dihydrochalcone]
